“Also recorded” adds a separate entry of the source. Where two headings read alike, the source gives them in different places. Where no end group is shown, it is not given here. The star is where a group is joined. Biotin = O=C1N[C@H]2[C@H](CS[C@H]2CCCCC(=O)*)N1
How the values were obtained:
human CLEC10A (CD301) = conditions: cited from earlier work
[1] = test system: LPS-treated dorsal skin of mice; set-up: species or system Female C57BL/6J mice; conditions: mouse, in vivo
TGM2 [2] = target: TGM2 (Cavia cutleri, UniProt P08587); type: biochemical, guinea pig liver
Sequence of TGM2 (Cavia cutleri, UniProt P08587) (P08587 whole entry): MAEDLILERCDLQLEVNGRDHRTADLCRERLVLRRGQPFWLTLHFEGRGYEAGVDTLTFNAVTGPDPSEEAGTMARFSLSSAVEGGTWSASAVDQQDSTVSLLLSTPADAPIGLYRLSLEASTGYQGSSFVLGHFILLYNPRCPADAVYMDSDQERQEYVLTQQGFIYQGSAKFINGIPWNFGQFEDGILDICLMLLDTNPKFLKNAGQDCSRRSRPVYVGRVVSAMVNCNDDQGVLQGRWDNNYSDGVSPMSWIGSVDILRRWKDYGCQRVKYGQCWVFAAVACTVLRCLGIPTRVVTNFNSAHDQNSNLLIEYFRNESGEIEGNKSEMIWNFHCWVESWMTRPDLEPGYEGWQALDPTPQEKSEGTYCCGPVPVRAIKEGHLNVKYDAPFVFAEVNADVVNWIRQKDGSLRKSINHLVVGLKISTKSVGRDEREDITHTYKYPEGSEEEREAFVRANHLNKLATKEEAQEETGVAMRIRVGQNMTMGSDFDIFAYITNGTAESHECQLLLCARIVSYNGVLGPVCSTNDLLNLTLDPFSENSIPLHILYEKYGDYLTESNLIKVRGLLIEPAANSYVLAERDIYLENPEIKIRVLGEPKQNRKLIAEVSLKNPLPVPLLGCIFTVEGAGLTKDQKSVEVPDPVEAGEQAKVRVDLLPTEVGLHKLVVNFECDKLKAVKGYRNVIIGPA

[3] = type: physicochemical; conditions: pH 5
[4] = test system: N-acetylgalactosamine‒specific lectins; conditions: cited from earlier work
TGM2 [5] = conditions: cited from earlier work
[6] = test system: sialic acid‒specific plant lectins; conditions: cited from earlier work
[7] = test system: recombinant human siglecs; conditions: cited from earlier work
TGM2 [8] = conditions: cited from earlier work; remark: listed apart in the source

In the case of [(VQATQS-GGGS)2K2]K-NH2 [svC1], the “binding to human CLEC10A” value (human CLEC10A (CD301)) is listed as “does not bind to CLEC10A”, the mean epidermal thickness [1] is listed as 15.5 μm and the “reduction of epidermal thickness” value [1] is listed as “active in reducing the thickness of the epidermis”. The “Km relative to svL4” value (TGM2 [2]) was “higher Km values”, the “TGM2 functional substrate / cross-linking to lysine” value (TGM2 [2]) was “the enzyme can use glutamine from the arms” and the “TGM2 substrate activity” value (TGM2 [2]) was “poor substrates in vitro”. For the same compound, the “TGM2 substrate activity with aged enzyme” value (TGM2 [2]) was “to a lesser extent, svC1 as substrates”.
For [(VQATQSNQHTPR-GGGS)2K2]K-NH2 [svL4], the “binding to human CLEC10A” value (human CLEC10A (CD301)) is given as “binds with high specificity and avidity to recombinant and native human CLEC10A (CD301); also recorded: bind specifically to human CLEC10A”, the “epidermal disruption / integrity of skin surface” value [1] is given as “restored the integrity of the skin surface, with no epidermal disruptions” and the “epidermal morphology / thickness” value [1] is given as “uniformly of normal thickness; also recorded: normal morphology with thin epidermis; also recorded: the epidermis had returned to a normal morphology”. The mean epidermal thickness [1] was 16.1 μm, the “neutrophils (Ly6G^+) in dermis” value [1] was “nearly free of neutrophils; also recorded: essentially free of neutrophils; also recorded: neutrophils were absent” and the “neutrophils in the dermis (summary statement)” value [1] was “loss of neutrophils in the dermis”. The “repair of structural disruption of the epidermis (general statement)” value [1] was “repair of areas of structural disruption of the epidermis; also recorded: structural disruption of the epidermis was repaired”, the “thickness of the epidermis (summary statement)” value [1] was “reduction of the thickness of the epidermis” and the “density of dermal collagen” value ([1]; sc) was “an increased density of dermal collagen was noted”. The “epidermal disruption / recovery, lesions” value ([1]; sc) was “no recovery occurred”, the epidermal thickness ([1]; sc) was “did not reduce epidermal thickness” and the positive charge [3] was 12. The “TGM2 functional substrate / cross-linking to lysine” value (TGM2 [2]) was “the enzyme can use glutamine from the arms; also recorded: functional substrates of transglutaminase (TGM) 2”, the “TGM2 substrate activity with aged enzyme” value (TGM2 [2]) was “lost over half of the activity” and the Km (TGM2 [2]; pH 7.5) was 7 µM. The “binding to other N-acetylgalactosamine‒specific lectins” value [4] was “bind specifically to human CLEC10A ([Hoober, 2020]) and other N-acetylgalactosamine‒specific lectins”.
In the case of carbobenzoxy-L-glytaminylglycine, the Km (TGM2 [5]) is given as 22 mM.
In the case of Biotin-TVQQEL, the Km (TGM2 [5]; read-out: Km of standard peptide) is listed as 0.001 mM.
In the case of [(NPSHPLSG-GGGS)2K]2K-NH2 [svH1C], the “binding to sialic acid‒specific plant lectins” value [6] is given as “binds to sialic acid‒specific plant lectins”, the “binding to recombinant human siglecs” value [7] is given as “recombinant human siglecs” and the “effectiveness, topical (general statement)” value [1] is given as “not effective when applied topically”. For the same compound, the “epidermal disruption / integrity of skin surface” value [1] was “not when applied topically”, the “epidermal morphology / thickness” value [1] was “ineffective in restoring normal epidermal morphology” and the “epidermal disruption / recovery, lesions” value ([1]; sc) was “effective when injected subcutaneously; also recorded: lesions were absent”. The epidermal thickness ([1]; sc) was “most areas of the skin contained a thickened epidermis” and the neutrophils in dermis ([1]; sc) was “abundant neutrophils in the dermis”.
For `NCCCCNCCCN` [spermidine], the “acceptor amine (second substrate) activity” value (TGM2 [5]) is listed as “active second substrates”.
In the case of `C[C@@H]1C[C@H]2[C@@H]3CCC4=CC(=O)C=C[C@]4(C)[C@@]3(F)[C@@H](O)C[C@]2(C)[C@@]1(O)C(=O)CO` [dexamethasone], the “induction of TGM2 expression” value (TGM2 [8]) is given as “Expression of TGM2 is induced”.
For `[Ca+2]` [Ca^2+, calcium ion], the “activation constant, KA” value (TGM2 [5]) is given as 6.9 mM.
For `NCCCCN` [putrescine], the “acceptor amine (second substrate) activity” value (TGM2 [5]) is listed as “active second substrates”.
For [(NQHTPR-GGGS)2K2]K-NH2 [sv6D], the “binding to human CLEC10A” value (human CLEC10A (CD301)) is listed as “binds with high specificity and avidity to recombinant and native human CLEC10A (CD301); also recorded: bind specifically to human CLEC10A”, the mean epidermal thickness [1] is listed as 17.1 μm and the “repair of structural disruption of the epidermis (general statement)” value [1] is listed as “structural disruption of the epidermis was repaired”. For the same compound, the positive charge [3] was 12, the “Km relative to svL4” value (TGM2 [2]) was “higher Km values” and the “TGM2 functional substrate / cross-linking to lysine” value (TGM2 [2]) was “the enzyme can use glutamine from the arms; also recorded: functional substrates of transglutaminase (TGM) 2”. For the same compound, the “TGM2 substrate activity” value (TGM2 [2]) was “poor substrates in vitro”, the “TGM2 substrate activity with aged enzyme” value (TGM2 [2]) was “gained the ability to use sv6D” and the “binding to other N-acetylgalactosamine‒specific lectins” value [4] was “bind specifically to human CLEC10A ([Hoober, 2020]) and other N-acetylgalactosamine‒specific lectins”.

Reference: article PMC9418603 (JID Innovations, 2022)
